According to patent US20250352550A1, “SUBSTITUTED FUROPYRIDINES FOR THERAPEUTIC USE” (MASARYKOVA UNIVERZITA, priority 2022, published 2025):

Tests used:
Type in all cases: biochemical
[1] = molecular target: T1, DDR1 (Homo sapiens, UniProt Q08345); assay: HotSpot radiometric kinase assay (Reaction Biology), DDR1; conditions: 200 nM kinase, substrate IRS1tide 20 μM, 33P-ATP, 120 minutes at room temperature
T1 construct: purchased Reaction Biology
Outline: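 Radiometric filter-binding assay: kinase and substrate in 20 mM HEPES pH 7.5, 10 mM MgCl2, 1 mM EGTA, 2 mM DTT, 1% DMSO. Reaction started with ^33P-ATP (0.01 μCi/μL final), run 120 minutes at room temperature. Activity expressed as percent of DMSO control; IC50 from curve fits.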

[2] = molecular target: T2, FLT3 (Homo sapiens, UniProt P36888); assay: HotSpot radiometric kinase assay (Reaction Biology), FLT3; conditions: 4 nM kinase, substrate ABLtide 20 μM, 33P-ATP, 120 minutes at room temperature
T2 construct: purchased Reaction Biology
T2 sequence (P36888 27-993): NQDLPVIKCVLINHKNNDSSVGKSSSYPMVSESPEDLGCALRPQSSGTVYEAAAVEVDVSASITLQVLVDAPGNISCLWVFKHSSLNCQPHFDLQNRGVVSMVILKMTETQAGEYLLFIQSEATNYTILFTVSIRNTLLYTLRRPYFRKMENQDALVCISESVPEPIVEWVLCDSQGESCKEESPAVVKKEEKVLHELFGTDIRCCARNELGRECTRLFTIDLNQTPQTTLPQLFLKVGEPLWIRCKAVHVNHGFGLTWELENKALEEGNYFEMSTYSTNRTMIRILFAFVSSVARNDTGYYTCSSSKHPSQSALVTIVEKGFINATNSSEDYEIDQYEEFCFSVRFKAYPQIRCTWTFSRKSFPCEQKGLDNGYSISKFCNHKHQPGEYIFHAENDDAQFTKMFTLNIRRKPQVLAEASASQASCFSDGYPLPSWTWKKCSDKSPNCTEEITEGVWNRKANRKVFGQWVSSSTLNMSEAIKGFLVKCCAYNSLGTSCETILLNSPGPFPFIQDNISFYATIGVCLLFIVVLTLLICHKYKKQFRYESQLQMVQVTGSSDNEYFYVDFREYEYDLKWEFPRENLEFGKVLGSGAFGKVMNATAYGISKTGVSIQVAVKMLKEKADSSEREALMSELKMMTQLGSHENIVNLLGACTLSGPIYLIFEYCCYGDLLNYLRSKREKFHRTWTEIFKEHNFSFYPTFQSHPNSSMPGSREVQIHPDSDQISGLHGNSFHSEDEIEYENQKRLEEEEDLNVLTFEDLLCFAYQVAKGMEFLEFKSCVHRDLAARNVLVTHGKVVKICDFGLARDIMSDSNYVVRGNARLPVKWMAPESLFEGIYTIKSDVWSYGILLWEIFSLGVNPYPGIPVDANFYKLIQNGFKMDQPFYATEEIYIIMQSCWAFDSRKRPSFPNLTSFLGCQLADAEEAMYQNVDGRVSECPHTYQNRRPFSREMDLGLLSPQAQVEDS
Outline: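 Radiometric filter-binding assay with kinase and substrate in HEPES pH 7.5 buffer containing MgCl2, EGTA, Brij35, BSA, Na3VO4, DTT and 1% DMSO, started with ^33P-ATP and run 120 min at room temperature. Phosphorylated substrate on P81 paper counted; activity expressed as % of DMSO control, IC50 from curve fits.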

[3] = molecular target: T3, KHS/MAP4K5 (Homo sapiens, UniProt Q9Y4K4); assay: HotSpot radiometric kinase assay (Reaction Biology), KHS/MAP4K5; conditions: 1.5 nM kinase, substrate MBP 20 μM, 33P-ATP, 120 minutes at room temperature
T3 construct: purchased Reaction Biology
T3 sequence (Q9Y4K4 whole entry): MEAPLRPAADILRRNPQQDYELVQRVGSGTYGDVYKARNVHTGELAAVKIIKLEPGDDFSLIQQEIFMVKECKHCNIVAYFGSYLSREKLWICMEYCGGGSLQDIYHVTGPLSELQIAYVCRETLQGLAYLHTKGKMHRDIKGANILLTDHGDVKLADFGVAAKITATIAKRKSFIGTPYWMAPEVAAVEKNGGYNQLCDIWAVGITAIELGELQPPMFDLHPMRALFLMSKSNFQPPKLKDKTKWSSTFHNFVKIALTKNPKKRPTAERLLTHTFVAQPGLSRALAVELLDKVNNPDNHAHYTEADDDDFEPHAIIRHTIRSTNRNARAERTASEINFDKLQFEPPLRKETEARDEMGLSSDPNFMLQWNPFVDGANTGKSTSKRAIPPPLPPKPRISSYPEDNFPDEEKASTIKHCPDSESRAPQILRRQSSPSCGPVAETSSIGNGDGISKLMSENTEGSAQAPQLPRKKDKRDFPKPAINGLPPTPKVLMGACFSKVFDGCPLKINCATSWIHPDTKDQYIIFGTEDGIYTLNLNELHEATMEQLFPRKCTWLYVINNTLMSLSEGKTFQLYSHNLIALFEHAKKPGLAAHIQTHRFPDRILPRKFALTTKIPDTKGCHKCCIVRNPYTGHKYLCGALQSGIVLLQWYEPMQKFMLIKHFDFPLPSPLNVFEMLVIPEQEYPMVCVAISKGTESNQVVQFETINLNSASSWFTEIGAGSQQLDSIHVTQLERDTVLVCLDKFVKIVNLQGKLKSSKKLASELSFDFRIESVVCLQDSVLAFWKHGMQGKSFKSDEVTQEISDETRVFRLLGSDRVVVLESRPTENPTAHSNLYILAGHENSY
Experimental: The compounds were profiled in the HotSpot radiometric assays (Reaction Biology).
Briefly, • 1. Substrate indicated in Table 1 was dissolved in freshly prepared reaction buffer (20 mM HEPES (pH 7.5), 10 mM MgCl2, 1 mM EGTA, 0.01% Brij35, 0.02 mg/ml BSA, 0.1 mM Na3VO4, 2 mM DTT, 1% DMSO) at the concentration indicated in Table 1. • 2. Corresponding kinase (concentration indicated in Table 1) was added and the mixture was gently mixed. • 3. Tested compound dissolved in DMSO was added into the kinase reaction mixture. • 4. ^33P-ATP (specific activity 0.01 μCi/μL final) was added into the reaction mixture to initiate the reaction. • 5. The kinase reaction was incubated for 120 minutes at room temperature. • 6. Reaction mixture was spotted onto P81 ion exchange paper (Whatman K 3698-915). • 7. The filters were extensively washed with […]. • 7. The radioactive phosphorylated substrate remaining on the filter paper was measured.
Kinase activity data were expressed as the percent remaining kinase activity in tested samples compared to the vehicle (DMSO) reactions. IC50 values and curve fits were obtained using Prism4 Software (GraphPad).
Table 2 summarizes the inhibitory activities of indicated compounds tested in the in vitro kinase assays described above.

T1 sequence (Q08345 19-913): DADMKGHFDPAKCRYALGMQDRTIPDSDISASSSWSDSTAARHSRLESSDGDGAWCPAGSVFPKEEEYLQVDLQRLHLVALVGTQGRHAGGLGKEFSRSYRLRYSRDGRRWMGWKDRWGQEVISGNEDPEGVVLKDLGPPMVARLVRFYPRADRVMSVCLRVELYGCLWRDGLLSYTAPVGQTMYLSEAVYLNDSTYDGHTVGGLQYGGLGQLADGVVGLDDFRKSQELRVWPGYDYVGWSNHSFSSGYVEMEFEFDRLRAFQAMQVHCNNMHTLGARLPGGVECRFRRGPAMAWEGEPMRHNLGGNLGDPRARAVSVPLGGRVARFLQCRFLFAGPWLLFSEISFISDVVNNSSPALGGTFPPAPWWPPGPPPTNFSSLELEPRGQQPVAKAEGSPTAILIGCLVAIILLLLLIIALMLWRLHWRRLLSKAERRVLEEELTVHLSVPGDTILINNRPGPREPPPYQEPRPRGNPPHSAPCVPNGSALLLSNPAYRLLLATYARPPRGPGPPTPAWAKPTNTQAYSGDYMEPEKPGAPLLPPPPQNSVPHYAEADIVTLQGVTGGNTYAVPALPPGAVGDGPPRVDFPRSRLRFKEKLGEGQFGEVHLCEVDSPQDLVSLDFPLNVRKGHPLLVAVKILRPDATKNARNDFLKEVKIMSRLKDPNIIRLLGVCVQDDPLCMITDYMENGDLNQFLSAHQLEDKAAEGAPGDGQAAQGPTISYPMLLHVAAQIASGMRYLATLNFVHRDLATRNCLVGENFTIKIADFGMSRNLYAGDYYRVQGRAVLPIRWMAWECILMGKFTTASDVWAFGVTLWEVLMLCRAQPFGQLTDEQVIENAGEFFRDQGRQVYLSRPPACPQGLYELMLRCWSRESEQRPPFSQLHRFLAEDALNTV

Row | SMILES | IC50 [1] | IC50 [2] | IC50 [3]
1 | NCc1cccc(-c2coc3cc(-c4ccc(N5CCNCC5)cc4)cnc23)c1 [Preparative Example 87, (3-(6-(4-(piperazin-1-yl)phenyl)furo[3,2-b]pyridin-3-yl)phenyl)methanamine] | 301 nM | 62 nM | 456 nM
2 | CN(C)C(=O)c1cccc(-c2coc3cc(-c4ccc(N5CCNCC5)cc4)cnc23)c1 [Preparative Example 54, N,N-dimethyl-3-(6-(4-(piperazin-1-yl)phenyl)furo[3,2-b]pyridin-3-yl)benzamide] | 301 nM | 207 nM | 538 nM
3 | CC(c1ccccc1)c1coc2cc(-c3ccc(N4CCN(C)CC4)cc3)cnc12 (racemic) [Preparative Example 203, 1-methyl-4-{4-[3-(1-phenylethyl)furo[3,2-b]pyridin-6-yl]phenyl}piperazine] | 808 nM | – | 804 nM
4 | CN(C)S(=O)(=O)c1cccc(-c2coc3cc(-c4ccc(N5CCNCC5)cc4)cnc23)c1 [Preparative Example 61, N,N-dimethyl-3-(6-(4-(piperazin-1-yl)phenyl)furo[3,2-b]pyridin-3-yl)benzenesulfonamide] | 272 nM | 73 nM | 896 nM
5 | CN1CCN(c2ccc(-c3cnc4c(Oc5ccccc5)coc4c3)cc2)CC1 [Preparative Example 229, 1-methyl-4-(4-{3-phenoxyfuro[3,2-b]pyridin-6-yl}phenyl)piperazine] | 308 nM | 729 nM | 284 nM
6 | Cc1nn(C)cc1-c1coc2cc(-c3ccc(N4CCN(C)CC4)cc3)cnc12 [Preparative Example 216, 1-{4-[3-(1,3-dimethyl-1H-pyrazol-4-yl)furo[3,2-b]pyridin-6-yl]phenyl}-4-methylpiperazine] | 367 nM | 224 nM | –
7 | CN1CCN(c2ccc(-c3cnc4c(-c5ccc(NC(=O)N(C)C)cc5)coc4c3)cc2)CC1 [Preparative Example 253, 3,3-dimethyl-1-(4-{6-[4-(4-methylpiperazin-1-yl)phenyl]furo[3,2-b]pyridin-3-yl}phenyl)urea] | – | 377 nM | 181 nM
8 | CN(C)c1cccc(-c2coc3cc(-c4ccc(N5CCNCC5)cc4)cnc23)c1 [Preparative Example 131, N,N-dimethyl-3-(6-(4-(piperazin-1-yl)phenyl)furo[3,2-b]pyridin-3-yl)aniline] | 385 nM | 345 nM | –
9 | CC(=O)c1cc(-c2coc3cc(-c4ccc(N5CCN(C)CC5)cc4)cnc23)ccn1 [Preparative Example 156, 1-(4-(6-(4-(4-methylpiperazin-1-yl)phenyl)furo[3,2-b]pyridin-3-yl)pyridin-2-yl)ethan-1-one] | 734 nM | 46 nM | –
10 | CN1CCN(c2ccc(-c3cnc4c(-c5cc(C(N)=O)ccc5F)coc4c3)cc2)CC1 [Preparative Example 211, 4-fluoro-3-(6-(4-(4-methylpiperazin-1-yl)phenyl)furo[3,2-b]pyridin-3-yl)benzamide] | 528 nM | 21 nM | 167 nM
11 | c1cc(SC2CCC2)cc(-c2coc3cc(-c4ccc(N5CCNCC5)cc4)cnc23)c1 [Preparative Example 164, 3-(3-(cyclobutylthio)phenyl)-6-(4-(piperazin-1-yl)phenyl)furo[3,2-b]pyridine] | 361 nM | 151 nM | 737 nM

Second part, the molecule after the results:

Row | IC50 [1] | IC50 [2] | IC50 [3] | SMILES
12 | 120 nM | 31 nM | 889 nM | Fc1cccc(-c2coc3cc(-c4ccc(N5CCNCC5)cc4)cnc23)c1 [Preparative Example 170, 3-(3-fluorophenyl)-6-(4-(piperazin-1-yl)phenyl)furo[3,2-b]pyridine]
13 | 64 nM | 100 nM | 433 nM | Cn1cc(-c2coc3cc(-c4ccc(N5CCNCC5)cc4)cnc23)cn1 [Preparative Example 34, 3-(1-methyl-1H-pyrazol-4-yl)-6-(4-(piperazin-1-yl)phenyl)furo[3,2-b]pyridine]
14 | 155 nM | 77 nM | 641 nM | CC(=O)OCc1cccc(-c2coc3cc(-c4ccc(N5CCN(C)CC5)cc4)cnc23)c1 [Preparative Example 94, 3-(6-(4-(4-methylpiperazin-1-yl)phenyl)furo[3,2-b]pyridin-3-yl)benzyl acetate]
15 | 163 nM | 24 nM | 394 nM | CN1CCN(c2ccc(-c3cnc4c(-c5cccc(CO)c5)coc4c3)cc2)CC1 [Preparative Example 90, (3-(6-(4-(4-methylpiperazin-1-yl)phenyl)furo[3,2-b]pyridin-3-yl)phenyl)methanol]
16 | 187 nM | 53 nM | 934 nM | CNc1cccc(-c2coc3cc(-c4ccc(N5CCN(C)CC5)cc4)cnc23)c1 [Preparative Example 110, N-methyl-3-(6-(4-(4-methylpiperazin-1-yl)phenyl)furo[3,2-b]pyridin-3-yl)aniline]
17 | 42 nM | 20 nM | 675 nM | Fc1ccc(-c2coc3cc(-c4ccc(N5CCNCC5)cc4)cnc23)cc1 [Preparative Example 51, 3-(4-fluorophenyl)-6-(4-(piperazin-1-yl)phenyl)furo[3,2-b]pyridine]
18 | 116 nM | 49 nM | 906 nM | COc1cccc(-c2coc3cc(-c4ccc(N5CCNCC5)cc4)cnc23)c1 [Preparative Example 14, 3-(3-methoxyphenyl)-6-(4-(piperazin-1-yl)phenyl)furo[3,2-b]pyridine]
19 | 27 nM | 56 nM | 756 nM | CN1CCN(c2ccc(-c3cnc4c(-c5cc(F)cc(C(N)=O)c5)coc4c3)cc2)CC1 [Preparative Example 219, 3-fluoro-5-{6-[4-(4-methylpiperazin-1-yl)phenyl]furo[3,2-b]pyridin-3-yl}benzamide]
